Test results published in PMC9609996, “SAR Study and Molecular Mechanism Investigation of Novel Naphthoquinone-furan-2-cyanoacryloyl Hybrids with Antitumor Activity” (Pharmaceutics, 2022).

Experiments:
[1] = system: MDA-MB-231; experiment: CCK-8 anti-proliferation assay, MDA-MB-231; format: cell-based, human; conditions: mean ± SD
Experimental: (§1) Human cervical cancer HeLa, human prostate cancer PC3, human colonic carcinoma HCT116, human lung carcinoma A549, human breast cancer MDA-MB-231, mouse melanoma B16, human ovarian cancer SKOV3, human hepatoma Hep3B, and human liver L02 cells were purchased from the Cell Bank of Shanghai Institute of Biochemistry and Cell Biology, Chinese Academy of Sciences (Shanghai, China). The HeLa, A549, B16, PC3, MDA-MB-231, HCT116, and L02 cells were cultured in Dulbecco’s modified Eagle medium (DMEM, Gibco Inc.; Gaithersburg, MD, USA). All cultures were supplied with 10% fetal bovine serum (FBS; YHSM, Beijing, China), 100 IU/mL of penicillin, and 100 μg/mL of streptomycin, and cells were incubated at 37 °C in an atmosphere of 5% CO2.
(§2) A CCK-8 kit (MCE, USA) was used to perform a CCK-8 assay. Cells were plated and grown in the 96-well plates for the indicated period (48 h) in the incubator, followed by an incubation with the CCK-8 solutions for 1–4 h. Subsequently, the absorbance (450 nm) was measured by a microplate reader. The median inhibitory concentration (IC50) was determined from the dose–response curve. Experiments were performed in a triplicate.

[2] = system: HeLa cells; experiment: Annexin V-FITC/PI apoptosis assay; format: cell-based, human; conditions: 12 μM
Excerpt: Apoptosis in cancer cells could be caused by the generation of intracellular ROS [31, 32, 33]. Three methods were utilized to assess the effect of compound 5c on the apoptosis of HeLa cells. First, Hoechst 33342 was utilized to stain the HeLa cells that were pretreated with different concentrations of compound 5c. Then, the cells were observed under a fluorescence microscope. […] Second, an annexin V-FITC/PI double staining method was used to quantitatively detect the effect of compound 5c on cell apoptosis. A quantitative analysis was performed using a flow cytometry analysis. […] Third, the levels of Bcl-xl family proteins, well-known as apoptosis-related proteins, were determined by Western blotting analysis.
For the cell cycle analysis, HeLa cells seeded in a 6-well plate (3 × 10^5 per well) were incubated with different concentrations of compound 5c or 0.1% DMSO for 24 h. Then, the cells were digested with 0.25% trypsin (without EDTA) and were washed twice with PBS, fixed in 70% ethanol overnight, and stained with PI ([…], Sigma) plus 0.2 mg/mL of DNase-free RNase A (Qiagen) for 20 minutes at room temperature. For the annexin V apoptosis assay, HeLa cells seeded in a 6-well plate (3 × 10^5 per well) were incubated with different concentrations of compound 5c or 0.1% DMSO for 24 h. Then, the cells were digested with 0.25% trypsin (without EDTA) and were washed twice with PBS. […]

[3] = system: Hep3B; experiment: CCK-8 anti-proliferation assay, Hep3B; format: cell-based, human; conditions: 48 h, mean ± SD
Experimental: as §1, §2

[4] = system: Bax in HeLa cells; experiment: Western blot, Bax; format: cell-based, human; conditions: 6–12 μM, 24 h
Experimental: (§3) Protein levels were determined by the standard Western blot assay. HeLa cells were incubated with different concentrations of compound 5c or 0.1% DMSO for 24 h. Cells harvested with trypsin were treated with 1× RIPA lysis buffer (50 mM Tris-HCl, pH 7.4, 150 mM NaCl, 0.25% deoxycholic acid, 1% NP-40, 1 mM ethylenediaminetetraacetate (EDTA), and protease inhibitor PMSF (Solarbio, Beijing, China) to extract the total proteins. Then, an aliquot of proteins from the total cell lysates (4–40 μg/lane) was separated using sodium dodecyl sulfate (8, 10, or 12%) polyacrylamide gel electrophoresis (BioRad Laboratories, Hercules, CA, USA). The aliquot was wet-transferred to a PVDF membrane (BioRad Laboratories, Hercules, CA, USA), blotted with primary antibodies (purchased from Cell Signaling Technology, Danvers, MA, USA) specific for the STAT3 (#12640), p-STAT3 (#9145), AKT (#4691), p-AKT (#4060), Bax (#5023), Bcl-xl (#2764), secondary isotype-specific antibodies (#7074) and glyceraldehyde-3-phosphate dehydro-genase (GAPDH, #2118) as the internal standard overnight; then, they were probed with secondary isotype-specific antibodies for another 2 h at 37 °C. The bound immuno-complexes were detected using a ChemiDOC XRS+ system (BioRad Laboratories, Hercules, CA, USA).

[5] = system: L02 cells; experiment: CCK-8 assay on normal cells, L02; format: cell-based; conditions: L02 human normal hepatocytes, 48 h, mean ± SD
Experimental: as §1, §2

[6] = system: ROS in HeLa cells; experiment: Cellular ROS detection (DCFDA flow cytometry); format: cell-based, human; conditions: 6, 9, 12 μM, 6 h
Experimental: To measure reactive oxygen species (ROS) production, 2′,7′-dichlorofluorescein diacetate (DCFDA) (Thermo Fisher Scientific, Waltham, MA, USA; D399) was used. DCFDA is a fluorogenic dye that, after diffusion into the cell, is oxidized by ROS into 2′,7′-dichlorofluorescein (DCF), a highly fluorescent compound that can be detected by fluorescence spectroscopy. To measure ROS production, HeLa cells were treated with compound 5c at 6 μM, 9 μM, and 12 μM for 6 h. Then, cells were washed with pre-warmed 1X PBS and were incubated at 37 °C with 10 μM of DCFDA for 30 min in PBS. Subsequently, the HeLa cells were washed and analyzed in FL-1 using a FACScalibur flow cytometer (BD, USA) and using CELL Quest software (BD Biosciences, San Jose, CA, USA). Live cells were gated according to their forward scatter (FSC) and side scatter (SSC) properties. For each analysis, 20,000 events were recorded.

[7] = system: Bcl-xl in HeLa cells; experiment: Western blot, Bcl-xl; format: cell-based, human; conditions: 6–12 μM, 24 h
Experimental: as §3

IC50 ([1]; 48 h): 40.74 ± 0.12 µM
IC50 ([1]; Homo sapiens, MDA-MB-231, 48 h): > 20.5 µM
IC50 [3]: 34.77 ± 0.03 µM
IC50 ([3]; Homo sapiens): > 20.5 µM
Structure (SMILES): N#C/C(=C\c1ccc(C2=CC(=O)c3ccccc3C2=O)o1)C(=O)NCCN1CCOCC1 [Compound 5c, (E)-2-cyano-3-(5-(1,4-dioxo-1,4-dihydronaphthalen-2-yl)furan-2-yl)-N-(2-morpholinoethyl)acrylamide]
percentage of apoptotic cells [2]: 46.70%
levels of Bax [4]: increased
IC50 [5]: 51.7 ± 0.1 µM
level of ROS in cancer cells [6]: significantly increased
total Bcl-xl levels [7]: significantly decreased
